From ChEMBL document CHEMBL1151118, “Plant antimutagenic agents, 2. Flavonoids” (J Nat Prod, 1988)

Legend:
Salmonella typhimurium [1] = experiment: Antimutagenic activity in Salmonella Typhimurium […] assessed as inhibition of 2-aminoanthracene-induced mutation at 600 ug/plate after 72 hrs in presence of Ames S-9 fraction; assay type: functional, Salmonella enterica subsp. enterica serovar Typhimurium
Salmonella typhimurium [2] = experiment: Antimutagenic activity in Salmonella Typhimurium […] assessed as inhibition of 2-aminoanthracene-induced mutation at 300 ug/plate after 72 hrs in presence of Ames S-9 fraction; assay type: functional, Salmonella enterica subsp. enterica serovar Typhimurium
Salmonella typhimurium [3] = experiment: Antimutagenic activity in Salmonella Typhimurium […] assessed as inhibition of 2-aminoanthracene-induced mutation at 150 ug/plate after 72 hrs in presence of Ames S-9 fraction; assay type: functional, Salmonella enterica subsp. enterica serovar Typhimurium
Salmonella typhimurium [4] = experiment: Antimutagenic activity in Salmonella Typhimurium […] assessed as inhibition of acetylaminofluorene-induced mutation at 600 ug/plate after 72 hrs in presence of Ames S-9 fraction; assay type: functional, Salmonella enterica subsp. enterica serovar Typhimurium
Salmonella typhimurium [5] = experiment: Antimutagenic activity in Salmonella Typhimurium […] assessed as inhibition of acetylaminofluorene-induced mutation at 300 ug/plate after 72 hrs in presence of Ames S-9 fraction; assay type: functional, Salmonella enterica subsp. enterica serovar Typhimurium
Salmonella typhimurium [6] = experiment: Antimutagenic activity in Salmonella Typhimurium […] assessed as inhibition of acetylaminofluorene-induced mutation at 150 ug/plate after 72 hrs in presence of Ames S-9 fraction; assay type: functional, Salmonella enterica subsp. enterica serovar Typhimurium
Salmonella typhimurium [7] = experiment: Antimutagenic activity in Salmonella Typhimurium […] assessed as inhibition of benzo[a]pyrene-induced mutation at 600 ug/plate after 72 hrs in presence of Ames S-9 fraction; assay type: functional, Salmonella enterica subsp. enterica serovar Typhimurium
Salmonella typhimurium [8] = experiment: Antimutagenic activity in Salmonella Typhimurium […] assessed as inhibition of benzo[a]pyrene-induced mutation at 300 ug/plate after 72 hrs in presence of Ames S-9 fraction; assay type: functional, Salmonella enterica subsp. enterica serovar Typhimurium
Salmonella typhimurium [9] = experiment: Antimutagenic activity in Salmonella Typhimurium […] assessed as inhibition of benzo[a]pyrene-induced mutation at 150 ug/plate after 72 hrs in presence of Ames S-9 fraction; assay type: functional, Salmonella enterica subsp. enterica serovar Typhimurium
Salmonella typhimurium [10] = experiment: Antimutagenic activity in Salmonella Typhimurium […] assessed as inhibition of 2-nitroflorene-induced mutation at 600 ug/plate after 72 hrs; assay type: functional, Salmonella enterica subsp. enterica serovar Typhimurium
Salmonella typhimurium [11] = experiment: Antimutagenic activity in Salmonella Typhimurium […] assessed as inhibition of 2-nitroflorene-induced mutation at 300 ug/plate after 72 hrs; assay type: functional, Salmonella enterica subsp. enterica serovar Typhimurium
Salmonella typhimurium [12] = experiment: Antimutagenic activity in Salmonella Typhimurium […] assessed as inhibition of 2-nitroflorene-induced mutation at 150 ug/plate after 72 hrs; assay type: functional, Salmonella enterica subsp. enterica serovar Typhimurium
[13] = Toxicity in Salmonella Typhimurium […] at 600 ug/plate after 72 hrs by Ames assay in presence of Ames S-9 fraction; assay type: organism-based; conditions: salmonella enterica subsp. enterica serovar typhimurium, Salmonella Typhimurium T98 with S-9 fraction
[14] = Toxicity in Salmonella Typhimurium […] at 300 ug/plate after 72 hrs by Ames assay in presence of Ames S-9 fraction; assay type: organism-based; conditions: salmonella enterica subsp. enterica serovar typhimurium, Salmonella Typhimurium T98 with S-9 fraction
[15] = Toxicity in Salmonella Typhimurium […] at 150 ug/plate after 72 hrs by Ames assay in presence of Ames S-9 fraction; assay type: organism-based; conditions: salmonella enterica subsp. enterica serovar typhimurium, Salmonella Typhimurium T98 with S-9 fraction

Structure (SMILES)	inhibition (INH) (Salmonella typhimurium [1])	inhibition (INH) (Salmonella typhimurium [2])	inhibition (INH) (Salmonella typhimurium [3])	inhibition (INH) (Salmonella typhimurium [4])	inhibition (INH) (Salmonella typhimurium [5])	inhibition (INH) (Salmonella typhimurium [6])	inhibition (INH) (Salmonella typhimurium [7])	inhibition (INH) (Salmonella typhimurium [8])	inhibition (INH) (Salmonella typhimurium [9])	inhibition (INH) (Salmonella typhimurium [10])	inhibition (INH) (Salmonella typhimurium [11])	inhibition (INH) (Salmonella typhimurium [12])	inhibition at 72 h, 600 ug/plate [13]	inhibition at 72 h, 300 ug/plate [14]	inhibition at 72 h, 150 ug/plate [15]
O=c1cc(-c2ccc(O)cc2)oc2cc(O)cc(O)c12 [APIGENIN]	10%	0%	0%	0%	14%	0%	75%	64%	67%	88%	70%	60%	–	–	–
C=C[C@@](C)(/C=C/c1ccc(O)cc1)CCC=C(C)C [BAKUCHIOL]	81%	84%	91%	0%	0%	0%	43%	28%	0%	92%	79%	75%	< 30%	< 20%	< 20%
CC(C)=CCc1cc2c(cc1O)O[C@H](c1ccc(O)cc1)CC2=O [BAVACHIN]	62%	98%	98%	–	0%	0%	–	0%	0%	–	72%	52%	–	50%	< 20%
COc1ccc(-c2coc3cc(O)cc(O)c3c2=O)cc1 [BIOCHANIN]	57%	–	–	–	–	–	–	–	–	–	–	–	< 20%	< 20%	–
COc1ccc(-c2coc3cc(O)ccc3c2=O)cc1 [FORMONONETIN]	0%	–	–	–	–	–	–	–	–	–	–	–	–	–	–
O=c1c(O)c(-c2ccccc2)oc2cc(O)cc(O)c12 [GALANGIN]	97%	–	–	–	–	–	–	–	–	–	–	–	–	–	–
COc1ccc([C@@H]2CC(=O)c3c(O)cc(O[C@@H]4O[C@H](CO[C@@H]5O[C@@H](C)[C@H](O)[C@@H](O)[C@H]5O)[C@@H](O)[C@H](O)[C@H]4O)cc3O2)cc1O [HESPERIDIN]	13%	–	–	–	–	–	–	–	–	–	–	–	< 20%	< 20%	–
CC(C)=CCc1c(O)ccc(C(=O)/C=C/c2ccc(O)cc2)c1O [ISOBAVACHALCONE]	86%	–	–	–	–	–	–	–	–	–	–	–	> 90%	> 90%	–
O=c1c(O)c(-c2ccc(O)cc2O)oc2cc(O)cc(O)c12 [MORIN]	0%	–	–	–	–	–	–	–	–	–	–	–	< 30%	< 20%	–
C[C@@H]1O[C@@H](O[C@H]2[C@H](Oc3cc(O)c4c(c3)O[C@H](c3ccc(O)cc3)CC4=O)O[C@H](CO)[C@@H](O)[C@@H]2O)[C@H](O)[C@H](O)[C@H]1O [NARINGIN]	38%	–	–	–	–	–	–	–	–	–	–	–	50%	< 30%	–
CC(C)=CCc1cc(-c2coc3cc(O)ccc3c2=O)ccc1O [NEOBAVAISOFLAVONE]	97%	67%	98%	96%	72%	2%	97%	74%	17%	66%	53%	15%	> 90%	> 90%	–
COc1ccc(-c2cc(=O)c3c(OC)c(OC)c(OC)c(OC)c3o2)cc1OC [NOBILETIN]	43%	–	–	–	–	–	–	–	–	–	–	–	< 20%	< 20%	–
O=c1c(O)c(-c2ccc(O)c(O)c2)oc2cc(O)cc(O)c12 [QUERCETIN]	20%	24%	16%	0%	0%	0%	0%	0%	0%	0%	0%	0%	50%	50%	–
COc1cc(O)c2c(=O)c(O)c(-c3ccc(O)c(O)c3)oc2c1 [RHAMNETIN]	78%	0%	0%	–	52%	11%	–	45%	7%	–	41%	34%	–	–	–
C[C@@H]1O[C@@H](OC[C@H]2O[C@@H](Oc3c(-c4ccc(O)c(O)c4)oc4cc(O)cc(O)c4c3=O)[C@H](O)[C@@H](O)[C@@H]2O)[C@H](O)[C@H](O)[C@H]1O [RUTIN]	0%	–	–	–	–	–	–	–	–	–	–	–	< 20%	< 20%	–
COc1ccc(-c2cc(=O)c3c(OC)c(OC)c(OC)c(OC)c3o2)cc1 [TANGERETIN]	42%	–	–	–	–	–	–	–	–	–	–	–	50%	< 20%	–
